3 molecules from paper doi:10.1101/662718v1 (biorxiv, 2019) can be followed below.

For assay [1], the target named is T1, ecATCase (Escherichia coli, UniProt P0A786).
T1 sequence (P0A786 2-311): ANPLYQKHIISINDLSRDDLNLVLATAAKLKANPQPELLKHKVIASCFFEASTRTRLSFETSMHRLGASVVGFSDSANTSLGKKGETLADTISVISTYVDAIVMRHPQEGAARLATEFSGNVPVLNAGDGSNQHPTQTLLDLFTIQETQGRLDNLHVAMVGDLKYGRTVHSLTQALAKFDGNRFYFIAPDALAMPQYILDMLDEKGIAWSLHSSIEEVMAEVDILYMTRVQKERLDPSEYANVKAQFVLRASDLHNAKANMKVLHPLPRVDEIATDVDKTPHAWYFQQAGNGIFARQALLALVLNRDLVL
As to the kind of experiment: ITC. The format is binding. The note with it: 50 mM Tris-acetate pH 8.3, no Asp.

Assay [2] concerns the target T1, ecATCase. Nature of the assay: colorimetric ATCase activity assay, dose-response fit. The format is biochemical.
The target of a further assay is T2, huATCase (Homo sapiens, UniProt P27708).
T2 sequence (P27708 1915-2225 limits assumed): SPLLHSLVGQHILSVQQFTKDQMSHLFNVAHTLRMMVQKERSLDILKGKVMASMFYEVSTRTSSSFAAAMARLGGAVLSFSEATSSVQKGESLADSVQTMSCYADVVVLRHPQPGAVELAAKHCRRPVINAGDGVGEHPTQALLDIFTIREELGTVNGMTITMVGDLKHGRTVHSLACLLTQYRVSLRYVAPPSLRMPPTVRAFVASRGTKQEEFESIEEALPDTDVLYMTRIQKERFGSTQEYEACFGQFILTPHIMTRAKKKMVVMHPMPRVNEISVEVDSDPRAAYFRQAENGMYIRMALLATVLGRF
The description is as above. The format is biochemical.

Regarding `NC(=O)OP(=O)(O)O` [CP], at ecATCase [1], the KD entry is reported as “all ATCase variants were able to bind CP”. For orientation: IC50 means the concentration that inhibits the measured activity by half. Low readings indicate greater potency, high ones weaker potency. As for `O=c1[nH]c2ccc(Nc3nc4nonc4nc3N/N=C/c3ccccc3OCc3ccc(Cl)cc3Cl)cc2[nH]1` [YD19], the 50% inhibitory concentration (IC50) against ecATCase [2] was 1.8 ± 0.4 µM; on huATCase, 4.1 ± 1.9 µM. The like results for `CC(C(=O)Oc1ccc(C2C3=C(Nc4[nH]c(=O)n(C)c(=O)c42)c2ccccc2C3=O)cc1)N1C(=O)c2ccccc2C1=O` (centres unmarked) [YD21] were, in that order, 5 ± 1.4 µM and 15.4 ± 1.6 µM.
